Values joined by “and” are separate entries in the source; they are usually repeats but may differ in a detail not shown here. Identical values can stand only once.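 How tested: cells in 96-well plates exposed to compound for 48 hours at five concentrations. GI50 = concentration required for 50% inhibition of growth. TGI: total growth inhibition.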
How the values were obtained:
Experiment in all cases: growth of human tumour cells (NCI), 48 h
[1] = tested on: MCF7 breast
[2] = tested on: IGROV1 ovarian
[3] = tested on: 786-0 renal
[4] = tested on: HS 578T breast
[5] = tested on: OVCAR-3 ovarian
[6] = tested on: HOP-92 NSCLC
[7] = tested on: SW-620 colon
[8] = tested on: UACC-257 melanoma
[9] = tested on: UACC-62 melanoma
[10] = tested on: MALME-3M melanoma
[11] = tested on: MDA-N

SMILES | TGI [1] | TGI [2] | TGI [3] | TGI [4] [µM] | TGI [5] | TGI [6] | TGI [7] | TGI [8] | TGI [9] | TGI [10] | TGI [11] | GI50 [1] | GI50 [5] | GI50 [6] | GI50 [8] | GI50 [9]
Cc1c(-c2nc3ccccc3[nH]2)c(=O)n(-c2ccccc2)n1C | > 100 µM | > 100 µM | > 100 µM | > 100 | > 100 µM | > 100 µM | > 100 µM | > 100 µM | > 100 µM | > 100 µM | > 100 µM | – | – | – | – | –
CN(CCC#N)c1ccc(/C=C2\SC(=S)NC2=O)cc1 | > 100 µM | > 100 µM | > 100 µM | > 100 | 67.9 µM | > 100 µM | > 100 µM | > 100 µM | 47.3 µM | > 100 µM | > 100 µM | – | – | – | – | –
COc1cc(/C=C2/C(=O)N(C(=O)c3ccccc3O)N=C2C)cc(OC)c1OC | 34.9 µM | 4.71 µM | > 100 µM | > 100 | 18.7 µM | > 83.9 µM | > 100 µM | > 100 µM | 16.9 µM | > 100 µM | > 100 µM | – | – | – | – | –
Cc1nc(-c2ccc([N+](=O)[O-])cc2)cn2c1nc1ccccc12 | > 100 µM | > 100 µM | > 100 µM | > 100 | > 100 µM | > 100 µM | > 100 µM | > 100 µM | 53.8 µM | > 100 µM | > 100 µM | – | – | – | – | –
COCOC1/C=C/CCCC#C[C@H](C)C(=O)CC1 (stereo partly drawn) | 23.1 µM | 22.7 µM | 13.5 µM | 46.4 | 15.2 µM | 19.2 µM | 5.64 µM | 17.8 µM | 22.6 µM | 19.4 µM | 24.3 µM | – | – | – | – | –
CCOc1cc(NC(C)=O)ccc1C(=O)NNC(=O)c1ccccc1OC(C)=O | > 100 µM | > 100 µM | > 90.3 µM | > 100 | > 100 µM | > 100 µM | > 100 µM | 52.5 µM | 37 µM | > 100 µM | > 100 µM | – | – | – | – | –
CCN(CC)CCc1c2c(nc3ccccc13)C(=O)c1cccnc1C2=O | 1.51 µM | 5.53 µM | 9.56 µM | > 100 | 5.8 µM | 40.1 µM | 12.7 µM | 2.91 µM | 2.97 µM | 4.49 µM | 4.54 µM | – | – | – | – | –
C[C@@]12[C@H]3CC[C@@H]1[C@H](O)C(=O)N2CC3 | > 100 µM | > 100 µM | > 100 µM | > 100 | > 100 µM | > 100 µM | > 100 µM | > 100 µM | > 100 µM | > 100 µM | > 100 µM | – | – | – | – | –
Cc1nc2c(sc(=S)n2-c2ccccc2)c2nc3ncccc3n12 | > 100 µM | > 100 µM | > 100 µM | > 100 | > 100 µM | > 100 µM | > 100 µM | > 100 µM | > 100 µM | > 100 µM | > 100 µM | – | – | – | – | –
COCOC1/C=C/CCCCC2=C(C)C=C(C1)O2 (stereo not drawn) | > 100 µM | > 100 µM | > 100 µM | > 100 | > 100 µM | > 100 µM | > 100 µM | > 100 µM | > 100 µM | > 100 µM | > 100 µM | – | – | – | – | –
COc1cccc(-c2cc(=O)c3ccccc3o2)c1N | > 100 µM | > 100 µM | > 100 µM | > 100 | > 100 µM | > 100 µM | > 100 µM | > 100 µM | > 100 µM | > 56 µM | > 100 µM | – | – | – | – | –
CC(=O)OCC1OC(OC(C)(C)CC/C=C(\C)[C@@H]2C/C=C(\C)CC/C=C(\C)CC2)C(O)C(O)C1OC(C)=O (stereo partly drawn) | > 100 µM and 64.8 µM | > 79.1 µM and 32 µM | 96.8 µM and 58.8 µM | 30.5 | > 100 µM and 28.6 µM | > 100 µM and 35 µM | > 31.6 µM and 50.7 µM | > 100 µM and 38.5 µM | > 100 µM and 30.6 µM | 56.4 µM and 34.5 µM | > 61.4 µM and 41.5 µM | 52 µM and 23.9 µM | 53.3 µM and 15.3 µM | > 81.2 µM and 17.5 µM | 99.3 µM and 19.1 µM | > 92.8 µM and 15.3 µM
CCCCN1C(=O)CC2[C@@H]3CCc4cc(OC(C)=O)ccc4C3CC[C@]2(C)C1=O (stereo partly drawn) | > 10 µM | > 10 µM | > 10 µM | > 10 | > 10 µM | > 10 µM | > 10 µM | > 10 µM | > 10 µM | > 10 µM | > 10 µM | – | – | – | – | –
C=C1CC(COc2cc(=O)oc3ccccc23)(c2ccccc2)OC1=O (stereo not drawn) | 2.14 µM | 3.07 µM | 2.96 µM | 27.5 | 1.87 µM | 2.34 µM | 3.35 µM | 6.65 µM | 2.92 µM | 3.11 µM | 5.57 µM | – | – | – | – | –
CC(C)(N=NC(C)(C)C(=O)NCCO)C(=O)NCCO | > 100 µM | > 100 µM | > 100 µM | > 100 | > 100 µM | > 100 µM | > 100 µM | > 100 µM | > 100 µM | > 100 µM | > 100 µM | – | – | – | – | –
O=C(CN1c2ccccc2Sc2ccccc21)N1CCNCC1 | > 100 µM | > 100 µM | > 100 µM | > 100 | > 100 µM | > 100 µM | > 100 µM | > 100 µM | > 100 µM | > 100 µM | > 100 µM | – | – | – | – | –
COc1cccc2c(N)c3cccc(C(=O)NCCN(C)C)c3nc12 | 1.57 µM | 1.65 µM | 1.82 µM | 0.571 | 1.7 µM | 1.3 µM | 2.71 µM | 3.41 µM | 0.78 µM | 0.501 µM | 0.982 µM | – | – | – | – | –
Nc1cc(CO)cc(Nc2nc3ccc(Cl)cc3c3[nH]c4ccccc4c23)c1 | 3.92 µM | 8.93 µM | 6.83 µM | 36.5 | – | 9.11 µM | 29.3 µM | 23.2 µM | 5.55 µM | 15.8 µM | 21.1 µM | – | – | – | – | –
C[N+]1=C2[B-](C(C)(C)C)=[N+](C(C)(C)C)[B-]2(C(C)(C)C)[N+](C)=C2[B-](C(C)(C)C)=[N+](C(C)(C)C)[B-]21C(C)(C)C (stereo not drawn) | > 100 µM | > 100 µM | > 100 µM | > 100 | > 100 µM | > 100 µM | > 100 µM | > 100 µM | > 100 µM | > 100 µM | > 100 µM | – | – | – | – | –

— PubChem BioAssay (NCI)
